Source: patent publication US20240368088A1, “EP4 ANTAGONIST COMPOUND AS WELL AS SALT, POLYMORPH AND USE THEREOF” (Wuhan Humanwell Innovative Drug Research and Development …, priority 2021, published 2024)
In brackets after ≈: the same amount, converted by molar mass.

How the values were obtained:
[1] = Hygroscopicity evaluation by dynamic vapor sorption (DVS); format: physicochemical
Protocol: Dynamic vapor sorption (DVS) curves are acquired on a DVS IntrInsic in Surface Measurement Systems (SMS). The relative humidity at 25° C. is corrected with the deliquescence points of LiCI, Mg (NO3)2, and KCI.
Starting at 0% RH, the test acquired the percentage change in mass of the sample when humidity changed (0% RH to 95% RH to 0% RH) at a constant temperature of 25° C.

[2] = Dynamic solubility experiment at 37° C. in water, SGF, FaSSIF and FeSSIF; conditions: for solubility at 1 h / solubility at 2 h / solubility at 4 h / solubility at 24 h: 37 °C, thermodynamic from solid; for Crystal form change: XRPD of centrifuged solid; for pH: pH value of filtrate;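 as to all read-outs here: at each sampling time, filtrate assayed by HPLC for concentration and for pH, centrifuged solid checked by XRPD, media SGF at pH 1.8, FaSSIF 6.5, FeSSIF 5.0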
Protocol: In the test, the purity, dynamic solubility and stability are tested by an Agilent 1260 high-performance liquid chromatograph.
The solid at a feeding concentration of 10 mg/mL (40 mg of solid in 4 mL of solvent, calculated as free acid) was rotationally mixed at 37° C., and the solubility of each sample in four systems of water, SGF, FaSSIF, and FeSSIF was determined at different time points (1 h, 2 h, 4 h, and 24 h). After sampling at each time point, the sample was centrifuged (at 10000 rpm) and filtered (through a 0.45 μm PTFE filter head), the filtrate was determined for HPLC concentration and pH value, and the centrifuged solid samples were tested for XRPD.
200.3 mg of NaCl and 105.0 mg of Triton X-100 were weighed out and added to a 50-mL volumetric flask, purified water was added, and the mixture was completely dissolved. 136 μL of concentrated hydrochloric acid (12 M) was added, and the pH was adjusted to 1.8 with 1 M hydrochloric acid or 1 M NaOH solution. Purified water was added, and the mixed solution was brought to volume.
0.34 g of anhydrous NaH2PO4, 0.44 g of NaOH, and 0.62 g of NaCl were weighed out and added to a 50-mL volumetric flask. Purified water was added, the mixture was completely dissolved, and the pH was adjusted to 6.5 with 1 M hydrochloric acid or 1 M NaOH solution. Purified water was added, and the mixed solution was brought to volume. 0.11 g of SIF powder was then weighed out, and the mixed solution was completely dissolved.
0.82 mL of glacial acetic acid, 0.40 g of NaOH, and 1.19 g of NaCl were added to a 50-mL volumetric flask. About 48 mL of purified water was added, the mixture was completely dissolved, and the pH was adjusted to 5.0 with 1 M hydrochloric acid or 1 M NaOH solution. Purified water was added, and the mixed solution was brought to volume. 0.56 g of SIF powder was then weighed out, and the mixed solution was completely dissolved.

[3] = Solid state stability (XRPD and HPLC after uncovered storage); conditions: for Relative to starting (%): HPLC purity; for Purity (area %): HPLC
Protocol: XRPD patterns are acquired on an X-ray powder diffraction analyzer manufactured by PANalytacal, and the scanning parameters are shown in Table A-1 below.
The free acid crystal form A and the crystal form A of the tromethamine salt were left to stand uncovered for 1/4 weeks at 25° C./60% RH and 40° C./75% RH, respectively, and then the physical and chemical stability of the samples was tested by XRPD and HPLC.

[4] = Crystal form conversion on drying at room temperature; format: physicochemical
Protocol: The free acid crystal form A was dissolved in MIBK (methyl isobutyl ketone), and then the mixture was subjected to gas-liquid diffusion in an n-pentane atmosphere to obtain free acid crystal form B (XRPD pattern thereof shown in FIG. 5).

[5] = SGF, pH 1.8, simulated gastric fluid
[6] = 25° C./60% RH/uncovered, 1 week
[7] = 25° C./60% RH/uncovered, 4 weeks
[8] = 40° C./75% RH/uncovered, 1 week
[9] = 40° C./75% RH/uncovered, 4 weeks

C[C@H](NC(=O)c1c(C(F)F)nn(C)c1Oc1cccc(C(C)(F)F)c1)c1ccc(C(=O)O)cc1 [Free acid crystal form A, (S)-4-(1-(5-(3-(1,1-difluoroethyl)phenoxy)-3-(difluoromethyl)-1-methyl-1H-pyrazole-4-carboxamide)ethyl)benzoic acid]
hygroscopicity (in words) ([1]; DVS, 25° C./80% RH): almost no hygroscopicity
vapor sorption ([1]; DVS, 25° C./80% RH): 0.07%
crystal form after DVS test ([1]; XRPD before and after DVS, 0% RH to 95% RH to 0% RH, 25° C.): unchanged
hygroscopicity (summary statement) ([1]; beneficial effects summary): relatively low hygroscopicity
solubility at 1 h ([2]; FaSSIF, pH 6.5, fassif): 1960 µg/mL (≈ 4090 µM)
solubility at 2 h ([2]; FaSSIF, pH 6.5, fassif): 1830 µg/mL (≈ 3820 µM)
solubility at 4 h ([2]; FaSSIF, pH 6.5, fassif): 1860 µg/mL (≈ 3880 µM)
solubility at 24 h ([2]; FaSSIF, pH 6.5, fassif): 1590 µg/mL (≈ 3320 µM)
solubility at 1 h ([2]; FeSSIF, pH 5, fessif): 210 µg/mL (≈ 438 µM)
solubility at 2 h ([2]; FeSSIF, pH 5, fessif): 220 µg/mL (≈ 459 µM)
solubility at 4 h ([2]; FeSSIF, pH 5, fessif): 220 µg/mL (≈ 459 µM)
solubility at 24 h ([2]; FeSSIF, pH 5, fessif): 210 µg/mL (≈ 438 µM)
solubility at 1 h [2, 5]: 40 µg/mL (≈ 83.4 µM)
solubility at 2 h [2, 5]: 40 µg/mL (≈ 83.4 µM)
solubility at 4 h [2, 5]: 50 µg/mL (≈ 104 µM)
solubility at 24 h [2, 5]: 40 µg/mL (≈ 83.4 µM)
Crystal form change ([2]; FaSSIF, 37° C., 1 h): No
Crystal form change ([2]; FaSSIF, 37° C., 2 h): No
Crystal form change ([2]; FaSSIF, 37° C., 4 h): No
Crystal form change ([2]; FaSSIF, 37° C., 24 h): No
Crystal form change ([2]; FeSSIF, 37° C., 1 h, Yes^a: converted to the free acid crystal form A): No
Crystal form change ([2]; FeSSIF, 37° C., 2 h, Yes^a: converted to the free acid crystal form A): No
Crystal form change ([2]; FeSSIF, 37° C., 4 h, Yes^a: converted to the free acid crystal form A): No
Crystal form change ([2]; FeSSIF, 37° C., 24 h, Yes^a: converted to the free acid crystal form A): No
Crystal form change ([2]; H2O, 37° C., 1 h): No
Crystal form change ([2]; H2O, 37° C., 2 h): No
Crystal form change ([2]; H2O, 37° C., 4 h): No
Crystal form change ([2]; H2O, 37° C., 24 h): No
Crystal form change ([2]; SGF, 37° C., 1 h, Yes^a: converted to the free acid crystal form A): No
Crystal form change ([2]; SGF, 37° C., 2 h, Yes^a: converted to the free acid crystal form A): No
Crystal form change ([2]; SGF, 37° C., 4 h, Yes^a: converted to the free acid crystal form A): No
Crystal form change ([2]; SGF, 37° C., 24 h, Yes^a: converted to the free acid crystal form A): No
pH ([2]; FaSSIF, 37° C., 1 h): 6.1
pH ([2]; FaSSIF, 37° C., 2 h): 6.1
pH ([2]; FaSSIF, 37° C., 4 h): 6.1
pH ([2]; FaSSIF, 37° C., 24 h): 6.1
pH ([2]; FeSSIF, 37° C., 1 h): 4.9
pH ([2]; FeSSIF, 37° C., 2 h): 4.9
pH ([2]; FeSSIF, 37° C., 4 h): 4.9
pH ([2]; FeSSIF, 37° C., 24 h): 5.0
pH ([2]; H2O, 37° C., 1 h): 8.3
pH ([2]; H2O, 37° C., 2 h): 8.4
pH ([2]; H2O, 37° C., 4 h): 8.3
pH ([2]; H2O, 37° C., 24 h): 4.8
pH ([2]; SGF, 37° C., 1 h): 1.8
pH ([2]; SGF, 37° C., 2 h): 1.8
pH ([2]; SGF, 37° C., 4 h): 1.8
pH ([2]; SGF, 37° C., 24 h): 1.8
solubility at 1 h ([2]; water): 80 µg/mL (≈ 167 µM)
solubility at 2 h ([2]; water): 80 µg/mL (≈ 167 µM)
solubility at 4 h ([2]; water): 90 µg/mL (≈ 188 µM)
solubility at 24 h ([2]; water): 130 µg/mL (≈ 271 µM)
crystal form after the vehicle solubility tests ([2]; water, SGF, FaSSIF, FeSSIF, 37° C., XRPD): unchanged
physicochemical stability (summary statement) [3]: good physicochemical stability
HPLC purity change after placement (in words) ([3]; 25° C./60% RH and 40° C./75% RH, uncovered, 1/4 weeks): not significantly changed
crystal form change after placement (in words) ([3]; 25° C./60% RH and 40° C./75% RH, uncovered, 1/4 weeks, XRPD): not changed
Relative to starting (%) [3, 6]: 99.81%
Relative to starting (%) [3, 7]: 99.83%
Relative to starting (%) [3, 8]: 99.79%
Relative to starting (%) [3, 9]: 99.77%
Purity (area %) [3, 6]: 94.14 area %
Purity (area %) [3, 7]: 94.19 area %
Purity (area %) [3, 8]: 94.15 area %
Purity (area %) [3, 9]: 94.13 area %
Purity (area %) ([3]; Starting): 94.35 area %

C[C@H](NC(=O)c1c(C(F)F)nn(C)c1Oc1cccc(C(C)(F)F)c1)c1ccc(C(=O)O)cc1 [free acid crystal form B, (S)-4-(1-(5-(3-(1,1-difluoroethyl)phenoxy)-3-(difluoromethyl)-1-methyl-1H-pyrazole-4-carboxamide)ethyl)benzoic acid]
crystal form after being dried at room temperature [4]: converted into the free acid crystal form A
